What was measured:
Arabidopsis thaliana = experiment: HTPS (high throughput on soil) - Dicot - Post-emergence; assay type: in vivo; settings: N/A: not active; for Emax: read-out: HTPS - Dicot - Post Max effect; for HTPS - Dicot - Post ED50: from normalized green area
Procedure, shortened: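 Single plants per well in sand, greenhouse-grown; at 2-true-leaf stage 5 μL compound in 50% acetone/0.1% tween-20 applied to leaves, top dose 1.5 Kg/Ha, 2.5-fold dilutions, 8 repeats. Green area imaged (11 and 18 DAA) for % inhibition; ED50/ED75/ED90 fitted from dose-response, t-test versus controls.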

Eragrostis teff = experiment: HTPS - Monocot - Pre-emergence; assay type: in vivo; settings: N/A: not active; for Emax: read-out: HTPS - Monocot - Pre Max effect
Procedure, shortened: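 Pre-emergence: compound in 50% acetone applied at 30 μL/well onto sown sand (Arabidopsis or Eragrostis teff), max 1.5 Kg/Ha, 2.5-fold dilutions. Green area imaged by RGB, normalized to give % inhibition; ED50, ED75, ED90 from log-dose curves, t-test versus controls.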

AMAPA = experiment: In-planta LTP pre-emergence, visual phenotype; assay type: in vivo, Amaranthus palmeri; settings: dicot; for pest or weed control at 2000 g/ha: Amaranthus palmeri, 432 h, read-out: IG Inhibited growth (% effect)
Experimental: (§1) A basic panel of 8 weed species (Table 3) were sowed in 4×4×7 cm plastic pots containing inert sand (Sweet sand), intensively washed using osmosis water. Each specie was sowed in a separate pot. In each pot 10-15 seeds were sowed according to the specie viability. Sowing was performed one day before application. The plants were grown for 21 days in a controlled greenhouse (26±2° C. day 20±2° C. night). Hood irrigation (tap water+Shefer 5:3:8 8 mM) was given at a 50% water content by weight. Compounds were soluble in water (DDW), and commercial herbicide control was soluble in formulation B (Table 4). Application was conducted with an industrial sprayer (TeeJet 6502E nozzle) at a rate of 2 kg/ha and spray volume of […]. Pre-emergence advanced dose response experiment application was conducted at six rates between 1-0.0312 kg/ha and spray volume of […]. Percentage of emergence was evaluated at 15 DAA. Visual phenotyping was recorded using a scale of 0-6 (0: no visible effect, 6: maximum effect) at 18 DAA. All experiments included an untreated control, a solvent control and a positive control (commercial herbicide A.I.). Statistical analysis for visual phenotyping determined by a median value of ≥3.5 and Fisher test (pval≤0.05). Statistical analysis for plant emergence determined by % emergence ≥50 and T test (pval≤0.05), as well as Wilcox test (pval≤0.05).

LOLPE = experiment: In-planta LTP pre-emergence, visual phenotype; assay type: in vivo, Lolium perenne; settings: monocot
Experimental: as §1

ALOMY = experiment: In-planta LTP pre-emergence, visual phenotype; assay type: in vivo, Alopecurus myosuroides; settings: monocot
Experimental: as §1

Row | SMILES | Emax (Arabidopsis thaliana) [%] | HTPS - Dicot - Post ED50 (Arabidopsis thaliana) [g/ha] | HTPS - Monocot - Pre ED50 (Eragrostis teff) [g/ha] | Emax (Eragrostis teff) [%] | pest or weed control at 2000 g/ha (AMAPA) [%] | DAB Disturbed apical bud (% effect) (AMAPA) | DE Disturbed emergence (% effect) (LOLPE) | IG Inhibited growth (% effect) (ALOMY) | IG Inhibited growth (% effect) (LOLPE) | BL Bleaching (% effect) (ALOMY) | DAB Disturbed apical bud (% effect) (ALOMY) | DE Disturbed emergence (% effect) (ALOMY)
1 | CC(N)COc1cccc(C(=O)O)c1 (stereo not shown) [Compound 106] | 100 | 102 | 380 | 87 | 60 | DAB (60), % | DE (60) % | – | – | – | – | –
2 | C#CCOC(=O)c1cccc(OCC(C)N)c1 (stereo not shown) [Compound 111] | 100 | 51 | – | – | 60 | – | – | IG (40) % | – | – | – | –
3 | CCCCOC(=O)c1cccc(OCC(C)N)c1 (stereo not shown) [Compound 112] | 100 | 300 | – | – | 60 | – | – | – | IG (40) % | – | – | –
4 | C[C@@H](N)COc1cccc(C(=O)O)c1 [Compound 154] | 100 | 16 | 150 | 100 | 60 | – | – | IG (80), % | IG (60) % | BL (60) % | DAB (60), % | DE (40), %
